According to patent publication US5919653A, “Nucleic acids encoding a human glycine transporter” (Allelix Neuroscience Inc., priority 1996, dated 1999):

Biological target: human GlyT-2 glycine transporter (clone pHGT2, SEQ ID 20 nucleic acid / SEQ ID 21 protein) (Homo sapiens, UniProt Q9Y345, I279N/I611V)
Assay: cell-based
Protocol: Transient GlyT-transfected cells or control cells grown in accordance with Example 5 were washed three times with HEPES buffered saline (HBS). The control cells were treated precisely as the GlyT-transfected cells except that the transfection procedure omitted any cDNA. […] The cells were then incubated another 20 minutes at 37° C., after which the cells were washed three times with ice-cold HBS. Scintillant was added to the cells, the cells were shaken for 30 minutes, and the radioactivity in the cells was counted using a scintillation counter. Data were compared between the cells contacted or not contacted by a prospective agent, and, where relevant, between cells having GlyT-1 activity versus cells having GlyT-2 activity, depending on the assay being conducted.
Data points represent means±SEM from an experiment performed in quadruplicate.

human GlyT-2 glycine transporter (clone pHGT2, SEQ ID 20 nucleic acid / SEQ ID 21 protein), sequence (Q9Y345 whole entry I279N/I611V): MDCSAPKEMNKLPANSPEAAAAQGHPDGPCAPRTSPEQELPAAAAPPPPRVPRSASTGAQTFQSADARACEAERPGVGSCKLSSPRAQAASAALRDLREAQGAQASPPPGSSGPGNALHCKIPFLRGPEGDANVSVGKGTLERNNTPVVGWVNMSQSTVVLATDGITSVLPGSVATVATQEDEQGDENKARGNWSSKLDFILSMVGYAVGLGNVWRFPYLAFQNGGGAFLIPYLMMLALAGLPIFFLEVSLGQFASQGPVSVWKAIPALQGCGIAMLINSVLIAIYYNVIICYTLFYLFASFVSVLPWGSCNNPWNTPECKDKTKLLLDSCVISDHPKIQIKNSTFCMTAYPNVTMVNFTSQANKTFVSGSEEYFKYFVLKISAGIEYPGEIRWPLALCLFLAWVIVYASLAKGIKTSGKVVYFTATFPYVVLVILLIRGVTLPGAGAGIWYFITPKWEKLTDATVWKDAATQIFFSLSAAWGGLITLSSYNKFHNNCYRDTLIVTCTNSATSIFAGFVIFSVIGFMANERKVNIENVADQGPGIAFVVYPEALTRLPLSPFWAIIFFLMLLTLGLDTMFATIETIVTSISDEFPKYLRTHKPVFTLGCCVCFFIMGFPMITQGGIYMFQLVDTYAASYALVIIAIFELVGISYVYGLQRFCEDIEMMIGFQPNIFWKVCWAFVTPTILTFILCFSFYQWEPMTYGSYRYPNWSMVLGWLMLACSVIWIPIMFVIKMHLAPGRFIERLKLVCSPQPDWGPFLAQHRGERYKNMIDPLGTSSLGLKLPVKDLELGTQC

NCC(=O)O [glycine]
IC50: 40 µM
